According to patent publication US20190225670A1, “COMPOUNDS AND METHODS FOR ACTIVATING TIE2 SIGNALING” (ASCLEPIX THERAPEUTICS, LLC, priority 2016, published 2019):

Tests used:
[1] = tested on: Tie2; test: Triton X-100 fractionation of MEC lysates, Tie2; type: cell-based, human
Description: Tie2 at EC-EC junctions form actin-rich complexes that are insoluble in Triton X-100-based lysis buffers but are soluble when distributed over the surface of the cell. Therefore, MEC monolayers were treated with various combinations of AXT107, Ang1, and Ang2 and cell lysates were fractionated by their solubility in Triton X-100-based lysis buffers. Experiments including VEGF 165 were also performed since VEGFR2 signaling often opposes the activities of Tie2. In each experiment, 100 μM AXT107 was used since it provided clear results relative to lower concentrations of AXT107.
Next, experiments were performed to determine whether or not relocation of Tie2 to the insoluble fraction was important for Tie2's activation by Ang2. Tie2 was immunoprecipitated from fractionated MEC lysates exposed to Ang2 with or without AXT107 and then immunoblotted for phospho-Tie2.
The isolation of Triton X-100 soluble and insoluble fractions was performed using modifications to previously-described procedures (see, e.g., Lampugnani et al., J Cell Biol. 1995; 129(1):203-217). FN1-coated six-well plates were seeded with 2.5×10^6 cells and cultured for forty-eight hours, as described above. The cultures were then serum starved for ninety minutes in EBM-2 media, treated with 100 μM AXT107 or DMSO vehicle, and fifteen minutes with 1 mM sodium vanadate. […] Samples were analyzed by western blot as described above. […]

[2] = tested on: myosin light chain 2 (MLC2); test: Western blot of pMLC2 in MECs treated with Ang2 and AXT107; type: cell-based, human; conditions: AXT107 and 200 ng/ml Ang2
Description: Phosphorylation of Tie2 is known to stimulate the Rap1-GTPase pathway, leading to a reduction in the phosphorylation of the downstream motor protein myosin light chain 2 (MLC2) associated with actin rearrangement.
For Ang1/2 signaling investigations, cell culture dishes (10 cm diameter) were coated with 5 μg/ml fibronectin (FN1; Sigma-Aldrich, St. Louis, Mo.) for two hours at 37° C. The FN1 solution was then removed by aspiration and 5×10^6 microvascular endothelial cells (MECs; Lonza, Walkersville, Md.) were plated in EGM-2MV media (Lonza) and cultured for forty-eight hours at 37° C. The cells were then serum starved for sixteen hours in serum-free EGM-2 base media (Lonza). AXT107 (0-100 μM, as indicated) was subsequently added to each culture and incubated for seventy-five minutes at 37° C. […] Specific proteins were identified by Western blot, using the following primary antibodies: Cell Signaling—phospho-Tie2 (Y992) (Cat#: 4221), Tie2 (Cat#: 7403), phospho-Stat3 (Y705) (Cat#: 4113), Stat3 (Cat#: 4904), phospho-Akt (S473) (Cat#: 4058), Akt (Cat#: 9272), phospho-p44/42 MAPK (T202/Y204) (Cat#: 4370), p44/42 MAPK (Cat#: 4695); BD Transduction Laboratories—β1 integrin (Cat#: 610467); Millipore—α5 integrin (Cat#: AB1928) and detected with HRP-conjugated goat anti-rabbit and sheep anti-mouse secondary antibodies (GE healthcare).

Sequence: LRRFSTAPFAFIDINDVINF [AXT107]
- amount of Tie2 in Triton X-100 insoluble fraction ([1]; 100 μM AXT107, independent of growth factor treatment): increased amounts
- phospho-Tie2 in fractionated lysates immunoprecipitated for Tie2 ([1]; MEC exposed to Ang2 with or without AXT107): observed only in the insoluble fractions of peptide-treated samples
- phosphorylation of MLC2 [2]: reduced in a dose-dependent manner
